Source: patent US7893088B2, “6-substituted isoquinoline derivatives” (N.V. Organon, priority 2006, dated 2011)

Biological target: recombinant human ROCK-I (Homo sapiens, UniProt Q13464)
Experiment: biochemical
Settings: IMAP fluorescence polarisation, dose response curve, read-out: plC50 (the source's name)
Procedure: Following a one hour incubation at room temperature in the dark, enzyme activity is detected by adding 60 μl of IMAP binding reagent (Molecular Devices) to each well.

Sequence of recombinant human ROCK-I (Q13464 whole entry): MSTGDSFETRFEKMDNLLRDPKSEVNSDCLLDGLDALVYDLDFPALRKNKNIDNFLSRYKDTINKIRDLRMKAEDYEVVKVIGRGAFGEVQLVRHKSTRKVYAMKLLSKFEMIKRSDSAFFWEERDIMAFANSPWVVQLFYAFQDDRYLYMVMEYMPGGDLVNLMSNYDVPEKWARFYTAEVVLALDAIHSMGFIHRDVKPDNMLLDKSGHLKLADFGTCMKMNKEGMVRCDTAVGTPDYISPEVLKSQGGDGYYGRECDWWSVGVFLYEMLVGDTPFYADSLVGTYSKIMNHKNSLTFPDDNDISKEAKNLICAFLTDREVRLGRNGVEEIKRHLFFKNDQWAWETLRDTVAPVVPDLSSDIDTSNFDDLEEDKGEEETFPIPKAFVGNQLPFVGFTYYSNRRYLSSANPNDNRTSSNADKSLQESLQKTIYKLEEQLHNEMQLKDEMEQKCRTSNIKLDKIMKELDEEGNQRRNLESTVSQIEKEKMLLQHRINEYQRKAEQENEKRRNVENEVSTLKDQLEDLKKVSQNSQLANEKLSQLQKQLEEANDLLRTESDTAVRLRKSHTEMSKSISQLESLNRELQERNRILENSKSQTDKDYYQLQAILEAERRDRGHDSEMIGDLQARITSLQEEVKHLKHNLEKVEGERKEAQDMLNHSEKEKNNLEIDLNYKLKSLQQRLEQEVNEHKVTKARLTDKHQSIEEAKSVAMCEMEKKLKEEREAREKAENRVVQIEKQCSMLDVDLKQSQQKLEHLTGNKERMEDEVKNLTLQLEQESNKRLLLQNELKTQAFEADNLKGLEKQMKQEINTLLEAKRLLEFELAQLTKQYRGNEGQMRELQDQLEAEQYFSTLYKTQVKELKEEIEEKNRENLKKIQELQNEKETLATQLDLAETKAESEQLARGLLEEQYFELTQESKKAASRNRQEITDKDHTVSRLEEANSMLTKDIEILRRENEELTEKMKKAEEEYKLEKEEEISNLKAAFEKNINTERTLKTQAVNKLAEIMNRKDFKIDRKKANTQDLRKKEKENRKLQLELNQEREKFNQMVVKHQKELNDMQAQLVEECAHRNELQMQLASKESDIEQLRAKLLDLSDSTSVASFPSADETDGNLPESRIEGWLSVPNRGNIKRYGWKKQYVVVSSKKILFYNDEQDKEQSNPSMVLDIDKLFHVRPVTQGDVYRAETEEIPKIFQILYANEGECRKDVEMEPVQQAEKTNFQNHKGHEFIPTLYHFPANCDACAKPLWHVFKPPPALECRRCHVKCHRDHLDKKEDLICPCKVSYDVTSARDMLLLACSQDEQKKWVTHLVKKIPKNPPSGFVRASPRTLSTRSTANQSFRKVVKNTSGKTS

## Nc1nccc2cc(S[C@H]3CC[C@@H](N)CC3)ccc12 [Example 4, Cis-6-(4-aminocyclohexylsulfanyl)isoquinolin-1-ylamine]
  IC50: < 316 nM
